Results reported in ChEMBL document CHEMBL4311969, “Polygala tenuifolia-Acori tatarinowii herbal pair as an inspiration for substituted cinnamic α-asaronol esters: Design, synthesis, anticonvulsant activity, and inhibition of lactate dehydrogenase study” (Eur J Med Chem, 2019).
Several values for one entry are separate records, joined by “and”; a condition that tells them apart may be missing. Identical values can stand only once. Activity calls are given as the source filed them. The rule behind the calls is not given here.

How the values were obtained:
[1] = test system: Mus musculus; assay: Anticonvulsant activity in Kunming mouse assessed as MES-induced hind limb extension at 100 mg/kg, ip administered 0. 5 to 4 hrs before MES stimulation relative to control; assay type: functional
[2] = test system: Mus musculus; assay: Anticonvulsant activity in Kunming mouse assessed as MES-induced hind limb extension at 100 mg/kg, ip administered 0. 5 to 2 hrs before MES stimulation; assay type: functional, organism-based
[3] = species: Homo sapiens; assay: Inhibition of human LDH1 at 0.5 mM using sodium pyruvate as substrate by UV-VIS spectrophotometry method relative to control
[4] = species: Homo sapiens; assay: Inhibition of human LDH5 at 0.5 mM using sodium pyruvate as substrate by UV-VIS spectrophotometry method relative to control
[5] = Neurotoxicity against Kunming mouse assessed as time remained in rod at 100 mg/kg, ip administered 0.5 to 2 hrs by rotarod test; assay type: toxicity, organism-based; conditions: in vivo
[6] = test system: Mus musculus; assay: Anticonvulsant activity in Kunming mouse assessed as MES-induced hind limb extension at 100 mg/kg, ip administered 3 hrs before MES stimulation; assay type: functional, organism-based
[7] = Drug metabolism in Sprague-Dawley rat assessed as retention time by HPLC/MS analysis; assay type: ADME
[8] = test system: Mus musculus; assay: Anticonvulsant activity in Kunming mouse assessed as reduction in ScPTZ-induced seizure at 300 mg/kg, ip administered 0.25 to 2 hrs before ScPTZ stimulation relative to control; assay type: functional; parameters: scale not given: the % may be the effect or the level left
[9] = test system: Mus musculus; assay: Anticonvulsant activity in Kunming mouse assessed as reduction in Sc3-MP-induced tonic seizure rate at 300 mg/kg, ip administered 0.5 hrs before Sc3-MP stimulation relative to control; assay type: functional; parameters: scale not given: the % may be the effect or the level left
[10] = (§1) Protective index, ratio of TD50 for neurotoxicity against ip dosed Kunming mouse assessed as time remained in rod measured at 0.5 hrs by rotarod test to ED50 for anticonvulsant activity in ip dosed Kunming mouse assessed as reduction in Sc3-MP-induced seizure administered 0.5 hrs before Sc3-MP stimulation; assay type: toxicity, organism-based; conditions: in vivo, read-out: PI
[11] = Protective index, ratio of TD50 for neurotoxicity against ip dosed Kunming mouse assessed as time remained in rod measured at 0.5 hrs by rotarod test to ED50 for anticonvulsant activity in ip dosed Kunming mouse assessed as MES-induced hind limb extension administered 0.5 hrs; assay type: toxicity, organism-based; conditions: in vivo, read-out: PI
[12] = Neurotoxicity against ip dosed Kunming mouse assessed as time remained in rod measured at 0.5 hrs by rotarod test; assay type: toxicity, organism-based; conditions: in vivo
[13] = test system: Mus musculus; assay: […] activity in ip dosed Kunming mouse assessed as reduction in formalin-induced paw licking administered 0.5 hrs before formalin stimulation; assay type: functional
[14] = test system: Mus musculus; assay: Anticonvulsant activity in Kunming mouse assessed as reduction in ScPTZ-induced tonic seizure rate at 100 mg/kg, ip administered 0.5 hrs before ScPTZ stimulation relative to control; assay type: functional; parameters: scale not given: the % may be the effect or the level left
[15] = as §1, with “formalin-induced paw licking” for “Sc3-MP-induced seizure”, “formalin” for “Sc3-MP”; assay type: toxicity, organism-based; conditions: in vivo, read-out: PI
[16] = test system: Mus musculus; assay: Anticonvulsant activity in Kunming mouse assessed as reduction in ScPTZ-induced tonic seizure rate at 300 mg/kg, ip administered 0.5 hrs before ScPTZ stimulation relative to control; assay type: functional; parameters: scale not given: the % may be the effect or the level left
[17] = test system: Mus musculus; assay: Anticonvulsant activity in ip dosed Kunming mouse assessed as reduction in ScPTZ-induced seizure administered 0.5 hrs before ScPTZ stimulation; assay type: functional
[18] = test system: Mus musculus; assay: Anticonvulsant activity in Kunming mouse assessed as reduction in ScPTZ-induced clonic seizure at 100 mg/kg, ip administered 0.5 hrs before ScPTZ stimulation relative to control; assay type: functional; parameters: scale not given: the % may be the effect or the level left
[19] = test system: Mus musculus; assay: Anticonvulsant activity in Kunming mouse assessed as reduction in Sc3-MP-induced seizure ip dosed measured at 0.5 hrs before Sc3-MP stimulation; assay type: functional
[20] = test system: Mus musculus; assay: Anticonvulsant activity in ip dosed Kunming mouse assessed as MES-induced hind limb extension administered 0.5 hrs before MES stimulation; assay type: functional
[21] = test system: Mus musculus; assay: Anticonvulsant activity in Kunming mouse assessed as reduction in ScPTZ-induced clonic seizure at 300 mg/kg, ip administered 0.5 hrs before ScPTZ stimulation relative to control; assay type: functional; parameters: scale not given: the % may be the effect or the level left
[22] = test system: Mus musculus; assay: Anticonvulsant activity in Kunming mouse assessed as reduction in Sc3-MP-induced clonic seizure rate at 300 mg/kg, ip administered 0.5 hrs before Sc3-MP stimulation relative to control; assay type: functional; parameters: scale not given: the % may be the effect or the level left
[23] = test system: Mus musculus; assay: Anticonvulsant activity in Kunming mouse assessed as reduction in ScPTZ-induced seizure at 100 mg/kg, ip administered 0.25 and 1 hrs before ScPTZ stimulation relative to control; assay type: functional; parameters: scale not given: the % may be the effect or the level left
[24] = test system: Mus musculus; assay: Anticonvulsant activity in Kunming mouse assessed as reduction in ScPTZ-induced seizure at 100 mg/kg, ip administered 0.25 to 2 hrs before ScPTZ stimulation relative to control; assay type: functional; parameters: scale not given: the % may be the effect or the level left
[25] = test system: Mus musculus; assay: Anticonvulsant activity in Kunming mouse assessed as MES-induced hind limb extension at 50 mg/kg, ip administered 0.5 to 4 hrs before MES stimulation relative to control; assay type: functional
[26] = as §1, with “ScPTZ-induced” for “Sc3-MP-induced”, “ScPTZ” for “Sc3-MP”; assay type: toxicity, organism-based; conditions: in vivo, read-out: PI
[27] = test system: Mus musculus; assay: Anticonvulsant activity in Kunming mouse assessed as reduction in ScPTZ-induced mortality rate at 300 mg/kg, ip administered 0.5 hrs before ScPTZ stimulation relative to control; assay type: functional; parameters: scale not given: the % may be the effect or the level left

With COc1ccc(/C=C/C(=O)OC/C=C/c2cc(OC)c(OC)cc2OC)c(OC)c1 the Activity [1] was 25 - 100%, the Activity [2] was “Active” and the inhibition [3] was “inactive”. The inhibition [4] was “inactive” and the Activity [5] was “Non-Toxic”.
With COc1cc(OC)c(OC)cc1/C=C/COC(=O)/C=C/c1c(OC)cccc1OC the Activity [1] was 25 - 100%, the Activity [2] was “Active” and the inhibition [3] was “inactive”. For the same compound, the inhibition [4] was “inactive”, the Activity [5] was “Non-Toxic” and the Activity [6] was “Active”.
With COc1cc(/C=C/C(=O)O)cc(OC)c1OC [SINAPIC ACID METHYL ETHER] the Activity [2] was “Active” and the Activity [5] was “Non-Toxic”.
In the case of COc1cc(OC)c(OC)cc1/C=C/C(=O)O, the Retention_time [7] is reported as 79.8 min.
With COc1cc(OC)c(OC)cc1/C=C/COC(=O)/C=C/c1ccccc1Br the Activity [1] was “inactive”, the Activity [2] was “Active” and the inhibition [3] was < 5%. The inhibition [4] was < 9% and the Activity [5] was “Non-Toxic”.
For COc1cc(/C=C/C(=O)OC/C=C/c2cc(OC)c(OC)cc2OC)cc(OC)c1, the Activity [1] was 25 - 100%, the Activity [2] was “Active” and the inhibition [3] was “inactive”. The inhibition [4] was “inactive” and the Activity [5] was “Non-Toxic”.
Compound COc1cc(OC)c(OC)cc1/C=C/COC(=O)/C=C/c1c(OC)c(OC)cc(OC)c1OC has an Activity [8] of 50%, an Activity [9] of 75% and a selectivity ratio at 0.5 h [10] of 5. The selectivity ratio at 0.5 h [11] was > 17.3, the TD50 at 0.5 h [12] was > 2110 µmol/kg and > 1000 mg/kg and the ED50 [13] was 50.8 mg/kg and 107 µmol/kg. The Activity [14] was 25%, the selectivity ratio at 0.5 h [15] was 19.7 and the Activity [1] was 25 - 100%. For the same compound, the Activity [16] was 25%, the ED50 [17] was 149 mg/kg and 314 µmol/kg and the Activity [18] was 100%. The Activity [2] was “Active”, the ED50 [19] was > 300 mg/kg and > 632 µmol/kg and the inhibition [3] was “Active”. For the same compound, the ED50 [20] was 122 µmol/kg and 57.9 mg/kg, the Activity [21] was 100% and the inhibition [4] was “Active”. For the same compound, the Activity [22] was 100%, the Activity [5] was “Non-Toxic” and the Activity [23] was 75%. It also gave an Activity [24] of 25%, an Activity [25] of 50% and a selectivity ratio at 0.5 h [26] of 6.7.
With COc1cc(OC)c(OC)cc1CCCOC(=O)/C=C/c1cc(OC)c(OC)c(OC)c1 the Activity [1] was 25 - 100%, the Activity [2] was “Active” and the inhibition [3] was < 5%. For the same compound, the inhibition [4] was 9%, the Activity [5] was “Non-Toxic” and the Activity [6] was “Active”.
For COc1cc(OC)c(OC)cc1CCCNC(=O)/C=C/c1cc(OC)c(OC)c(OC)c1, the Activity [1] was 25 - 100%, the Activity [2] was “Active” and the inhibition [3] was < 5%. For the same compound, the inhibition [4] was 9% and the Activity [5] was “Non-Toxic”.
COc1cc(OC)c(OC)cc1/C=C/COC(=O)/C=C/c1ccc(Br)cc1 gave an Activity [8] of 50%, an Activity [9] of 75% and a selectivity ratio at 0.5 h [10] of 5. The selectivity ratio at 0.5 h [11] was 17.1, the TD50 at 0.5 h [12] was 2440 µmol/kg and 1060 mg/kg and the ED50 [13] was 105 mg/kg and 243 µmol/kg. For the same compound, the Activity [14] was 100%, the selectivity ratio at 0.5 h [15] was 10.1 and the Activity [1] was 25 - 100%. For the same compound, the Activity [16] was 25%, the ED50 [17] was 446 µmol/kg and 193 mg/kg and the Activity [18] was 100%. For the same compound, the Activity [2] was “Active”, the Activity [27] was 0% and the ED50 [19] was > 300 mg/kg and > 692 µmol/kg. For the same compound, the inhibition [3] was < 5%, the ED50 [20] was 61.8 mg/kg and 143 µmol/kg and the Activity [21] was 100%. The inhibition [4] was < 9%, the Activity [22] was 100% and the Activity [5] was “Non-Toxic”. For the same compound, the Activity [23] was 75%, the Activity [6] was “Active” and the Activity [24] was “inactive”. For the same compound, the Activity [25] was 50% and the selectivity ratio at 0.5 h [26] was 5.5.
With COc1cc(OC)c(OC)cc1/C=C/COC(=O)/C=C/c1ccccc1F the Activity [1] was “inactive”, the Activity [2] was “Active” and the inhibition [3] was < 5%. The inhibition [4] was < 9% and the Activity [5] was “Non-Toxic”.
In the case of COc1cc(OC)c(OC)cc1/C=C/COC(=O)/C=C/c1c(OC)c(OC)c(OC)c(OC)c1OC, the Activity [1] is reported as “inactive”, the Activity [2] is reported as “Active” and the inhibition [3] is reported as “inactive”. The inhibition [4] was “inactive” and the Activity [5] was “Non-Toxic”.
For COc1cc(OC)c(OC)cc1/C=C\C(=O)O, the Retention_time [7] was 78.7 min.
